Assay results as given in patent US20230271941A1, “COMPOUNDS AND COMPOSITIONS FOR TREATING CONDITIONS ASSOCIATED WITH STING ACTIVITY” (IFM Due, Inc., priority 2020, published 2023).

Target: T1, hSTING (Homo sapiens, UniProt Q86WV6, G230A/H232R/R293Q/R71H)
T1 construct: host or cells: THP1-Dual KO-IFNAR2 cells
Assay: STING reporter assay: THP1-Dual KO-IFNAR2 cells stimulated with 2′3′cGAMP, luciferase reporter activity
Format: cell-based
Conditions: 15 μM 2′3′cGAMP transfected with Lipofectamine 2000, 24 h, luciferase reporter (QUANTI-Luc)
Procedure: STING pathway activation by the compounds described herein was measured using THP1-Dual™ cells (KO-IFNAR2).
THP1-Dual™ KO-IFNAR2 Cells (obtained from invivogen) were maintained in RPMI, 10% FCS, 5 ml P/S, 2 mM L-glut, 10 mM Hepes, and 1 mM sodium pyruvate. Compounds were spotted in empty 384 well tissue culture plates (Greiner 781182) by Echo for a final concentration of 0.0017-100 μM. Cells were plated into the TC plates at 40 μL per well, 2×10E6 cells/mL. For activation with STING ligand, 2′3′cGAMP (MW 718.38, obtained from Invivogen), was prepared in Optimem media.
The following solutions were prepared for each 1×384 plate: • Solution A: 2 mL Optimem with one of the following stimuli: • 60 μL of 10 mM 2′3′cGAMP→150 μM stock • Solution B: 2 mL Optimem with 60 μL Lipofectamine 2000→Incubate 5 min at RT
2 mL of solution A and 2 ml Solution B was mixed and incubated for 20 min at room temperature (RT). 20 μL of transfection solution (A+B) was added on top of the plated cells, with a final 2′3′cGAMP concentration of 15 μM. The plates were then centrifuged immediately at 340 g for 1 minute, after which they were incubated at 37° C., 5% CO2, >98% humidity for 24 h. Luciferase reporter activity was then measured. EC50 values were calculated by using standard methods known in the art.
Luciferase reporter assay: 10 μL of supernatant from the assay was transferred to white 384-plate with flat bottom and squared wells. One pouch of QUANTI-Luc™ Plus was dissolved in 25 mL of water. 100 μL of QLC Stabilizer per 25 mL of QUANTI-Luc™Plus solution was added. 50 μL of QUANTI-Luc™ Plus/QLC solution per well was then added. Luminescence was measured on a Platereader (e.g., Spectramax I3X (Molecular Devices GF3637001)).
Luciferase reporter activity was then measured. EC50 values were calculated by using standard methods known in the art.

T1 sequence (Q86WV6 whole entry R71H/G230A/H232R/R293Q): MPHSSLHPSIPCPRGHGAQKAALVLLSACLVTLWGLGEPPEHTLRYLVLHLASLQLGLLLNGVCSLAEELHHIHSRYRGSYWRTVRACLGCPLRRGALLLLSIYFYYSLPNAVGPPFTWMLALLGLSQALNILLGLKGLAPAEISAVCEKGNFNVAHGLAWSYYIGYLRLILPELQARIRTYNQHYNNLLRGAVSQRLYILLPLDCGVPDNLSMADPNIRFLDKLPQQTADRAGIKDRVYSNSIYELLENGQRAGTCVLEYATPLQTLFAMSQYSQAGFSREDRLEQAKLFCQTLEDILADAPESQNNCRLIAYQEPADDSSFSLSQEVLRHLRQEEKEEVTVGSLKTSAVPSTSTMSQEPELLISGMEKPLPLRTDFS

| SMILES | EC50 [µM] |
| --- | --- |
| CC(C)n1cc(-c2ccc3[nH]cc(NC(=O)c4cn(Cc5ccc(C(F)(F)F)cc5)cn4)c3c2)cn1 [Compound 138, N-(5-(1-isopropyl-1H-pyrazol-4-yl)-1H-indol-3-yl)-1-(4-(trifluoromethyl)benzyl)-1H-imidazole-4-carboxamide] | 0.2 to 1 |
| O=C(Nc1c[nH]c2cc(F)c(F)cc12)c1cc(-c2ccccn2)on1 [Compound 109, N-(5,6-difluoro-1H-indol-3-yl)-5-(pyridin-2-yl)-1,2-oxazole-3-carboxamide] | 0.2 to 1 |
| O=C(Nc1c[nH]c2c(F)cncc12)c1ccn(Cc2ccc(C(F)(F)F)cc2)n1 [Compound 131, N-(7-fluoro-1H-pyrrolo[3,2-c]pyridin-3-yl)-1-(4-(trifluoromethyl)benzyl)-1H-pyrazole-3-carboxamide] | 1 to 5 |
| Cc1cc(Cn2cc(C(=O)Nc3c[nH]c4ccc(Cl)cc34)cn2)cnc1OCC(F)(F)F [Compound 160, N-(5-chloro-1H-indol-3-yl)-1-((5-methyl-6-(2,2,2-trifluoroethoxy)pyridin-3-yl)methyl)-1H-pyrazole-4-carboxamide] | 0.04 to 0.2 |
| O=C(Nc1c[nH]c2cc(F)c(F)cc12)c1nn(Cc2ccc(C(F)(F)F)cc2)c(=O)[nH]1 [Compound 142, N-(5,6-difluoro-1H-indol-3-yl)-5-oxo-1-(4-(trifluoromethyl)benzyl)-4,5-dihydro-1H-1,2,4-triazole-3-carboxamide] | 1 to 5 |
| O=C(Nc1c[nH]c2cnccc12)c1cnn(Cc2ccc(C(F)(F)F)cc2)c1 [Compound 144] | 5 to 100 |
| O=C(Nc1c[nH]c2cc(F)c(F)cc12)c1cc(-c2ccc(Cl)cc2)on1 [Compound 167, 5-(4-chlorophenyl)-N-(5,6-difluoro-1H-indol-3-yl)isoxazole-3-carboxamide] | 0.2 to 1 |

The remaining lines, values ahead:

| EC50 [µM] | SMILES |
| --- | --- |
| 5 to 100 | O=C(Nc1c[nH]c2cc(F)c(F)cc12)c1cc(-c2ccncc2)[nH]n1 [Compound 176, N-(5,6-difluoro-1H-indol-3-yl)-5-(pyridin-4-yl)-1H-pyrazole-3-carboxamide] |
| 0.2 to 1 | O=C(Nc1c[nH]c2cc(F)c(F)cc12)c1csc(-c2cccc(C(F)(F)F)c2)n1 [Compound 101, N-(5,6-difluoro-1H-indol-3-yl)-2-(3-(trifluoromethyl)phenyl)thiazole-4-carboxamide] |
| 0.2 to 1 | O=C(Nc1c[nH]c2ccccc12)c1cn(-c2ccc(C(F)(F)F)c(Cl)c2)cn1 [Compound 135, 1-(3-chloro-4-(trifluoromethyl)phenyl)-N-(1H-indol-3-yl)-1H-imidazole-4-carboxamide] |
| 5 to 100 | O=C(Nc1c[nH]c2ccccc12)c1cn(-c2cnc(OCC(F)(F)F)c(F)c2)nn1 [Compound 157, 1-(5-fluoro-6-(2,2,2-trifluoroethoxy)pyridin-3-yl)-N-(1H-indol-3-yl)-1H-1,2,3-triazole-4-carboxamide] |
